Laboratory results reported in ChEMBL document CHEMBL1141121, “Selective inhibition of MCF-7(piGST) breast tumors using glutathione transferase-derived 2-methylene-cycloalkenones” (J Med Chem, 2005).

Columns and labels:
Format in all cases: cell-based
[1] = target: T1, Glutathione S-transferase P (Homo sapiens, UniProt P09211); experiment: Inhibitory concentration against GSTP1-1 over-expressed in MCF-7piGST cells
Target sequence in this assay (P09211 whole entry): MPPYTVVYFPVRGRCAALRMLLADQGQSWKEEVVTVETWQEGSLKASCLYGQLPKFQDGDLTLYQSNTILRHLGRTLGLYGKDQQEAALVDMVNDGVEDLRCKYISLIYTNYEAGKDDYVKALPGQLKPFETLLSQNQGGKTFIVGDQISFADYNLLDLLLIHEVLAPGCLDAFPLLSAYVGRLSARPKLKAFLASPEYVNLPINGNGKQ

[2] = target: T1, Glutathione S-transferase P; experiment: Ratio between MCF7wt to MCF-7piGST cells overexpressing in GSTP1-1
Target sequence in this assay (P09211 2-210 limits assumed): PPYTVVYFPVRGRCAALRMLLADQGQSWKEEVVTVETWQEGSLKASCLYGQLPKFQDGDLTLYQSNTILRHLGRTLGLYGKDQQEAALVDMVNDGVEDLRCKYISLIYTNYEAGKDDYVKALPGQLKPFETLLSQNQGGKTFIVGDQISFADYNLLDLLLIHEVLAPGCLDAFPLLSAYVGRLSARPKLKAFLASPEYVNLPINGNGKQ

[3] = target: T1, Glutathione S-transferase P; experiment: Inhibitory concentration against GSTP1-1 over-expressed in MCF7wt cells
Target sequence in this assay (P09211 whole entry): as the sequence (P09211 whole entry) above

SMILES | IC50 [1] [µM] | Ratio [2] | IC50 [3] [µM]
C/C=C/C(=O)OCC1=CCCCC1=O | 13.2 | 2.2 | 29.6
C/C=C/OC(=O)CC1=CCCCCC1=O | 2.6 | 4.2 | 10.8
